This passage reports IC50 results from ChEMBL document CHEMBL3297657, “Synthesis and antitumor activities of novel α-aminophosphonate derivatives containing an alizarin moiety” (Eur J Med Chem, 2014).

The test system of one assay is A549. The assay can be described thus: cells. Conditions: Homo sapiens, A549, 48 h.
The test system of another assay is HepG2. The assay is described as follows: cells. Conditions: Homo sapiens, HepG2, 48 h.
In another assay the test system is NCI-H460. The assay can be described thus: Cytotoxicity against human NCI-H460 cells after 48 hrs by MTT assay. Type of assay: functional, cell-based. To be noted: NCI-H460, 48 h.
In a further assay the test system is HCT-116. The assay can be described thus: cells. To be noted: Homo sapiens, HCT-116, 48 h.
In a further assay the test system is HUVEC. The assay can be described thus: Cytotoxicity against HUVEC after 48 hrs by MTT assay. It counts as cell-based. Conditions: Homo sapiens. (Tetrazolium dyes change colour on reduction, which living cells bring about.)
A further assay deals with MGC-803. The assay can be described thus: Cytotoxicity against human MGC803 cells after 48 hrs by MTT assay. It counts as functional, cell-based. To be noted: MGC-803, 48 h.
For another assay, the system named is HeLa. The assay can be described thus: cells. To be noted: Homo sapiens, 48 h.
Another assay has as its system KB. The assay is described as follows: Cytotoxicity against human KB cells after 48 hrs by MTT assay. It counts as functional, cell-based.

SMILES strings stand for the structures.

Broadly, the IC50 is the concentration at which inhibition is half-maximal.

Description for A549: Cytotoxicity against human A549 cells after 48 hrs by MTT assay
Description for HCT-116: Cytotoxicity against human HCT116 cells after 48 hrs by MTT assay
Description for HeLa: Cytotoxicity against human HeLa cells after 48 hrs by MTT assay
Description for HepG2: Cytotoxicity against human HepG2 cells after 48 hrs by MTT assay

`CCOP(=O)(OCC)C(NC(=O)COc1ccc2c(c1O)C(=O)c1ccccc1C2=O)c1ccc(OC)cc1` (stereo not given): the IC50 was 42.2 µM with A549; above 50 µM in the assay on HepG2; 20 µM in the assay with NCI-H460; 44.9 µM in the assay with HCT-116; above 50 µM with HUVEC; 36.1 µM in the assay with MGC-803. Further, the IC50 in the assay on HeLa is above 50 µM; in the assay with KB it was 7.32 µM.

For `CCOP(=O)(OCC)C(NC(=O)COc1ccc2c(c1O)C(=O)c1ccccc1C2=O)c1ccccc1OC` (stereo not given), the IC50 in the assay on A549 is 39 µM; in the assay on HepG2, above 50 µM; in the assay with NCI-H460, 20.8 µM; in the assay with HCT-116, 30.2 µM; with HUVEC, above 50 µM; in the assay on MGC-803, 29.2 µM. Besides, the IC50 is above 50 µM in the assay on HeLa and 1.24 µM in the assay with KB.

Turning to `CCOP(=O)(OCC)C(NC(=O)COc1ccc2c(c1O)C(=O)c1ccccc1C2=O)c1ccccc1Br` (stereo not given), the IC50 was 35.8 µM in the assay on A549; above 50 µM with HepG2; 12 µM in the assay with NCI-H460; 17.2 µM in the assay with HCT-116; above 50 µM with HUVEC; 18.7 µM with MGC-803. Also, the IC50 with HeLa was above 50 µM; in the assay on KB it was 6.64 µM.

`CCOP(=O)(OCC)C(NC(=O)COc1ccc2c(c1O)C(=O)c1ccccc1C2=O)c1cccc(OC)c1` (stereo not given): the IC50 in the assay with A549 is 44.1 µM; in the assay with HepG2, above 50 µM; in the assay on NCI-H460, 27.9 µM; with HCT-116 it was 49.8 µM; in the assay with HUVEC it was above 50 µM; in the assay with MGC-803 it was 38 µM. Besides, the IC50 with HeLa was above 50 µM; in the assay on KB it was 15.5 µM.

`CCOP(=O)(OCC)C(NC(=O)COc1ccc2c(c1O)C(=O)c1ccccc1C2=O)c1ccc(C)cc1` (stereo not given): the IC50 in the assay on A549 is 33.8 µM; in the assay with HepG2 it was above 50 µM; in the assay with NCI-H460 it was 12.2 µM; in the assay on HCT-116, 13.7 µM; in the assay with HUVEC, above 50 µM; with MGC-803, 12.6 µM. The half-maximal inhibitory concentration (IC50) in the assay on HeLa is above 50 µM; in the assay with KB, 9.37 µM.

With `CCOP(=O)(OCC)C(NC(=O)COc1ccc2c(c1O)C(=O)c1ccccc1C2=O)c1ccc(F)cc1` (stereo not given), the IC50 in the assay on A549 is 49 µM; in the assay with HepG2, above 50 µM; in the assay with NCI-H460, 47.9 µM; in the assay with HCT-116, 36.3 µM; with HUVEC it was above 50 µM; in the assay on MGC-803 it was 30.9 µM. The figures for the IC50 with HeLa and in the assay on KB were above 50 µM and 6.45 µM, respectively.

For `CCOP(=O)(OCC)C(NC(=O)COc1ccc2c(c1O)C(=O)c1ccccc1C2=O)c1ccccc1F` (stereo not given), the IC50 in the assay with A549 was 37.8 µM; in the assay on HepG2 it was above 50 µM; in the assay with NCI-H460, 12.9 µM; in the assay with HCT-116 it was 14.7 µM; with HUVEC it was above 50 µM; in the assay with MGC-803, 27.1 µM. For the same molecule, the IC50 is above 50 µM in the assay on HeLa and 2.6 µM in the assay with KB.

Consider `CCOP(=O)(OCC)C(NC(=O)COc1ccc2c(c1O)C(=O)c1ccccc1C2=O)c1ccccc1Cl` (stereo not given), for which the IC50 with A549 was 38 µM; with HepG2, above 50 µM; in the assay on NCI-H460, 21.2 µM; with HCT-116, 16.3 µM; with HUVEC it was above 50 µM; in the assay on MGC-803, 39.2 µM. Besides, the IC50 in the assay on HeLa is above 50 µM; in the assay with KB, 1.55 µM.

As to `CCOP(=O)(OCC)C(NC(=O)COc1ccc2c(c1O)C(=O)c1ccccc1C2=O)c1cccc(C)c1` (stereo not given), the IC50 was 47 µM in the assay on A549; 28.5 µM with HepG2; 33.9 µM in the assay with NCI-H460; 16 µM in the assay with HCT-116; above 50 µM in the assay with HUVEC; 37.9 µM in the assay on MGC-803. The figures for the IC50 with HeLa and in the assay with KB were 10.6 µM and 12 µM, respectively.

On to `CCOP(=O)(OCC)C(NC(=O)COc1ccc2c(c1O)C(=O)c1ccccc1C2=O)c1ccc(Br)cc1` (stereo not given), for which the IC50 is 45.1 µM in the assay on A549; above 50 µM with HepG2; 46.2 µM with NCI-H460; 45.8 µM in the assay with HCT-116; above 50 µM in the assay on HUVEC; 35.2 µM in the assay on MGC-803. In addition, the IC50 in the assay on HeLa was above 50 µM; with KB it was 3.26 µM.
